Measurements taken from US7358233B2, “Tetronic acid derivative” (Toudai TLO, Ltd, priority 2001, dated 2008).

Assays:
HT-29 cells [1] = assay: Combined use of VST and cisplatin, colony-forming ability of HT-29 cells; assay type: cell-based
Excerpt: Enhancement of endoplasmic reticulum stress response promotes survival of cells under undernutritive conditions, and at the same time allows cells to acquire resistance to antitumor agents. Therefore, the inventors intended to examine the effect of VST on known antitumor agents. […] Therefore, the combined effect with other pharmaceutical agents could not be duly examined. Thus, cisplatin generally used for solid cancer treatment was used to examine the combined effect, due to its activity on cancer cells that is maintained even under low glucose conditions. Specifically, HT-29 cells were cultured by the above-mentioned method, pretreated for 30 min with VST, and then cultured for 18 hours. The cells were then treated for 4 hours with each concentration of cisplatin, and a week later their colony-forming ability was examined.

HT-29 cells [2] = assay: Re-examination of apoptosis inducing effect on HT-29 cells; assay type: cell-based
Excerpt: Since the in vitro strong effect could not be confirmed in the animal experiment, the apoptosis inducing effect of VST on HT-29 cells was reexamined.

HT-29 cells [3] = assay: Antitumor effect against HT-29 cells transplanted into nude mice; assay type: in vivo
Procedure: The antitumor effect of VST at the animal level was examined. Specifically, HT-29 cells were transplanted into nude mice and tumor was grown to 100 mm^3. Subsequently, each concentration of VST was administered through the tail vein, progress of cancer was followed each day thereafter, and the tumor was enucleated to compare its size. […] Furthermore, the combined effect with CDDP (cisplatin) was examined.

HT1080 cells = assay: Apoptosis (sub-G1) of HT1080 cells by propidium iodide FACS analysis; assay type: cell-based; conditions: for sub-G1 stage induction (apoptosis): 3 μM VST
Procedure: HT1080 cells were pretreated for 30 min with 3 μM of VST, after fixing the cells the nuclei were stained with propidium iodide for FACS analysis. […] In contrast, only a very limited number of HT1080 cells underwent apoptosis with glucose starvation treatment alone.

GRP78 [4] = assay: Western blotting of GRP78 induction in HT1080 cells under endoplasmic reticulum stress; assay type: cell-based; conditions: pretreated 30 min, 18 hours
Procedure: (§1) Specifically, […] HT-29 and HT1080 were cultured in RPMI1640 medium and pretreated for 30 min with 3 μM and 30 μM VST. Next, the GRP78 level was detected 18 hours after each endoplasmic reticulum stress treatment by Western blotting (FIG. 10). […] This phenomenon could be elucidated for the first time by the use of VST.

GRP78 [5] = assay: Western blotting of GRP78 induction in HT-29 cells under endoplasmic reticulum stress; assay type: cell-based; conditions: pretreated 30 min, 18 hours
Procedure: as §1

GRP78 [6] = assay: Western blotting of endogenous GRP78 induction in HeLa78C6 cells; assay type: cell-based, human
Procedure: HeLa78C6 cells were cultured in DMEM media, 30 min before tunicamycin addition each concentration of VST was added, followed by 2 μg/mL of tunicamycin, and treated for 18 hours. The cells were collected, and the induction of GRP78 was detected by Western blotting using anti-GRP78 antibody (Stressgene). As a result, it was confirmed that VST inhibits not only the reporter assay, but also the induction of endogenous molecular chaperone GRP78 at the protein level in a concentration-dependent manner (FIG. 9A).
Furthermore, HeLa78C6 was cultured by the above-mentioned culturing method and pretreated for 30 min with 50 μM VST. Then, the cells were collected at each time point after the addition of tunicamycin to detect the GRP78 protein level by Western blotting.
Moreover, the GRP78 level 18 hours after the treatment with each of the indicated endoplasmic reticulum stress-inducing agents was detected using a method similar to that used for FIG. 9A.

HSP70 heat shock protein = assay: Transcriptional activity of HSP70 (no data shown); assay type: cell-based
XBP1 = assay: Formation of spliced XBP1 in HT1080 transfected with Flag-tagged XBP1; assay type: cell-based
Excerpt: To elucidate the mechanism of VST to express its activity, the effect of VST on several factors that function in the pathway of endoplasmic reticulum stress response was examined. In particular, Ire1α-XBP1 pathway, a pathway of endoplasmic reticulum stress response and is widely conserved from yeast to mammalian cells, was examined. XBP1 spliced at the mRNA level from a precursor (XBP1 (U)) by Ire1α, that is activated in response to endoplasmic reticulum stress turns into the activated form (XBP1(S)), transfers to the nucleus, and induces transcription of GRP78 by binding to the GRP78 promoter, ERSE.
A plasmid wherein a Flag tag is linked to the cloned XBP1 was transfected into HT1080, and the cell was pretreated for 30 min with VST. 6 hours after imposing each stress, proteasome inhibitor MG132 was added and the cells were cultured for another 6 hours to prepare samples. The full length and spliced XBP1 were detected in the samples using anti-Flag antibody. Examination on the formation of the spliced form XBP1 due to 2-DG treatment is shown in FIG. 16A and that due to tunicamycin treatment is shown in FIG. 16B. Since the spliced form of XBP1 is very rapidly degraded by proteasomes, its detection is difficult. To overcome this problem, proteasome inhibitor MG132 was added. […]

HT-29 cells [7] = assay: Colony formation of HT-29 cells under endoplasmic reticulum stress conditions; assay type: cell-based
Procedure: HT-29 cells were pretreated for 30 min with each concentration of VST, and then subjected to stress treatment with each of the endoplasmic reticulum stresses, i.e., tunicamycin, calcium ionophore A23187, glucose starvation and 2-DG, for 18 hours. Subsequently, the cells were cultured for 1 week […], and then colonies were measured by crystal violet staining.

CC/C1=C\C(CO)CC(C)C(OC2CC(O)C(OC3CC(OC)C(OC4CC(O)C(O)C(C)O4)C(C)O3)C(C)O2)C(C)CCCC2(C)C=C(C)C(C)CC23OC(=O)C(=C3O)C(=O)C2(CC)C1C(C)=CC1C(O)CC(=O)C(C)C12 (centres unmarked) [VST, versipelostatin]
effect of the combined use of VST with cisplatin on colony-forming ability (HT-29 cells [1]; VST 300 nM and 500 nM, then cisplatin 4 hours (FIG. 14)): further enhance the effect of cisplatin | activity on colony-forming ability under glucose starvation condition (HT-29 cells [1]; glucose starvation condition): enhance the activity | apoptosis induction effect (HT-29 cells [2]): fails to express apoptosis induction effect | growth suppression effect in colony forming tests (HT-29 cells [2]): shows growth suppression effect | antitumor effect (tumor size) (HT-29 cells [3]; HT-29 tumor grown to 100 mm^3 in nude mice, VST through the tail vein (FIG. 15)): showed antitumor effect, although the effect was not as strong as cisplatin | combined effect with CDDP (cisplatin) (HT-29 cells [3]; HT-29 tumor in nude mice): no effect due to the combination could be confirmed | sub-G1 stage induction (apoptosis) (HT1080 cells; glucose starvation condition, after 48 hours): strong sub-G1 stage induction | sub-G1 stage induction (apoptosis) (HT1080 cells; in the presence of glucose): did not show any effect | induction of apoptosis, sequential changes (HT1080 cells; glucose starvation conditions (FIG. 13)): time-dependent manner | induction of GRP78 by 2-DG (GRP78 [4]; 3 μM VST): inhibits the induction of GRP78 | GRP78 induction due to tunicamycin treatment (GRP78 [4]; 30 μM VST): did not inhibit GRP78 induction | induction of GRP78 by 2-DG (GRP78 [5]; 3 μM VST): inhibits the induction of GRP78 | GRP78 induction due to tunicamycin treatment (GRP78 [5]; 30 μM VST): did not inhibit GRP78 induction | GRP78 protein level, time course (GRP78 [6]; 50 μM VST pretreatment 30 min, 12 to 18 hours after tunicamycin 2 μg/mL (FIG. 9B)): inhibited | selectivity of the effect among endoplasmic reticulum stresses (GRP78 [6]; 18 hours (FIG. 9C)): higher selectivity against 2-deoxyglucose | induction of GRP78 by each endoplasmic reticulum stress-inducing agent (GRP78 [6]; 18 hours after treatment (FIG. 9C)): inhibited the induction of GRP78 against any of the endoplasmic reticulum stresses | induction of endogenous GRP78 at the protein level (GRP78 [6]; each concentration of VST 30 min before tunicamycin 2 μg/mL, 18 hours (FIG. 9A)): inhibits | influence on the transcriptional activity of HSP70 heat shock protein (HSP70 heat shock protein): no influence | formation of spliced XBP1 (XBP1; 2-DG treatment, MG132 added (FIG. 16A)): inhibited | formation of spliced XBP1 (XBP1; tunicamycin treatment, MG132 added (FIG. 16B)): did not inhibit the splicing of XBP1 | cell growth suppression (colony formation) (HT-29 cells [7]; 2-DG treatment 18 hours, 1 week culture (FIG. 11D)): strong cell growth suppression effect | cell growth suppression (colony formation) (HT-29 cells [7]; glucose starvation 18 hours, 1 week culture (FIG. 11C)): strong cell growth suppression effect | cell growth suppression (colony formation) (HT-29 cells [7]; tunicamycin treatment 18 hours, 1 week culture (FIG. 11A)): did not show suppression on cell growth
